The results in this text go back to patent US20070292403A1, “Methods of treating a neurological disorder with creatine monohydrate” (priority 2006, published 2007).

Series [1] relates to subjects with early Parkinson's disease (PD). Description: Example 2: randomized double-blind futility trial, change in total UPDRS. It is filed as in vivo, human. Particulars: baseline to 12 months or time symptomatic therapy needed; creatine 10 g/day, minocycline 200 mg/day; worst change score imputed. The procedure: (§1) Study Design and Randomization. This example was a single arm futility study designed to assess creatine and minocycline. A placebo arm for calibration was included in the example. Eligible subjects were randomly assigned in a 1:1:1 fashion to receive 1) 10 g/day of creatine monohydrate and placebo minocycline, 2) placebo creatine monohydrate and 200 mg/day of minocycline, or 3) placebo creatine monohydrate and placebo minocycline. The primary futility analysis was at 12 months of follow-up, but each subject was followed for 18 months for additional safety information. Subjects and investigators were kept blinded to treatment group.
Participants. […] Two of the three cardinal manifestations of PD (tremor, rigidity, and bradykinesia) were required; these findings had to be asymmetric. The diagnosis of PD must have been made within 5 years of randomization. Women of childbearing potential were required to use adequate birth control and have a negative pregnancy test at baseline. Subjects were excluded if they had any secondary causes of parkinsonism, such as drug induced parkinsonism or structural lesions; had atypical parkinsonian syndromes; gait freezing or impairment in postural reflexes; had prior stereotaxis surgery for PD; used creatine, minocycline, or any investigational agent within 90 days prior to randomization; had known hypersensitivity to creatine or minocycline; used CoQ10 in doses greater than 300 mg 90 days prior to randomization; or had any clinically significant medical condition that could interfere with the subject's ability to safely participate in the study or be followed.
(§2) Dosages. Creatine was administered as 5 g sachets mixed with 8 ounces of liquid taken twice a day and minocycline was administered as 100 mg capsules taken twice a day. Both were taken with meals.
Outcome measures. […] Disability was assessed by the sight investigator, based on impairment in ambulation, activities in daily living, and occupational status. […] Both the site investigator and medical monitors assessed the potential relationship between SAEs and study drug. […]

For series [2] the test system is unchanged. Description: Example 2: safety and tolerability in the early Parkinson's disease trial. It is filed as in vivo, human. The procedure:
as §1, §2
Outcome measures. The primary, prespecified outcome measure was the change in the total Unified PD Rating Scale (UPDRS) score from baseline to either the time at which there was sufficient disability to warrant symptomatic therapy for PD or 12 months, whichever came first. Disability was assessed by the sight investigator, based on impairment in ambulation, activities in daily living, and occupational status. The mean change in total UPDRS for each treatment group was compared to a prespecified futility threshold of a 30% reduction in the historically derived change in the total UPDRS, which was based on a placebo arm of a previous clinical trial. Tolerability was defined as the proportion of subjects taking study drug for the full 12 months. All […] adverse events (SAEs) were reviewed by the study medical monitor and an independent medical monitor. Both the site investigator and medical monitors assessed the potential relationship between SAEs and study drug.
Study Procedures. At the screening visit, the purpose and potential risks were explained to potential subjects and each subject gave written consent. […] Blood was obtained for serum chemistry and complete blood count. Participants were reevaluated at 1, 3, 6, 9, and 12 months (±6 days) after the baseline visit using the battery of clinical scales and blood was drawn again at 6 and 12 months.

“Also recorded” adds a separate entry of the source.

Take `CN(C)c1ccc(O)c2c1C[C@H]1C[C@H]3[C@H](N(C)C)C(O)=C(C(N)=O)C(=O)[C@@]3(O)C(O)=C1C2=O` [Minocycline, minocycline]: the “Mean (SD) change in total UPDRS” value in series [1] is reported as 7.09 (8.71). Moreover, the “SAEs occurring during the study” value in series [2] (creatine 10 g/day, minocycline 200 mg/day) was “Six”. In addition, in series [2] (creatine 10 g/day, minocycline 200 mg/day, 12 months), the Tolerability result is on record as “generally well tolerated; also recorded: less well tolerated than creatine”. Further, in series [2] (human, in vivo), the “Patients with dose reductions” value is listed as 15.
